This assay is described as follows: pharmacological and clinical studies (summary statements). Conditions: presence of R-citalopram. It is filed as in vivo. From the text: This may be shown in functional in-vivo pharmacological models and studies of 5-HT-reuptake effect and or in behaviour models, for example depression models.

On to `CN(C)CCC[C@]1(c2ccc(F)cc2)OCc2cc(C#N)ccc21` [R-citalopram], for which the “impact on the effect of escitalopram” value is reported as “negative impact on the effect of escitalopram”.
